The conditions of data set [1]: in vivo; cited from earlier work.
For data set [2] the following is noted: in vivo; cited from earlier work. This is another data set of the same source.
Data set [3] can be described thus: Convulsions on intravenous clonidine (inventors' finding). The data set is classed as in vivo. Particulars: 10 mg/kg.
The next data set has as its system withdrawal body shake. The following applies: intraperitoneal, 0.16 mg/kg; cited from earlier work.
Data set [4] relates to jumping, a severer withdrawal symptom. Particulars: intravenous, 0.1-0.10 mg/kg.

In the case of `C[C@]12N[C@H](Cc3ccccc31)c1ccccc12` [Dizocilipine, dizocilpine], the “difference between toxic and effective doses” value in data set [1] was “extremely small difference between its toxic and effective doses”.

Take `CCC(=O)C(CC(C)N(C)C)(c1ccccc1)c1ccccc1` (centres unmarked) [Methadone]: the dependence to itself entry in data set [2] was “cause dependence to itself”.

Turning to `Clc1cccc(Cl)c1N=C1NCCN1` [Clonidine, clonidine], the convulsions entry in data set [3] is “causes convulsions”. In addition, in the data set with withdrawal body shake, the “suppression of withdrawal body shake” value is reported as “suppress withdrawal body shake”. Moreover, the suppression of jumping entry in data set [4] is “fails to suppress jumping”.

Values taken from patent US5413993A, “Method for the treatment of narcotic withdrawal symptoms in animals using lipopolysaccharides” (priority 1992, dated 1995).
